Laboratory results as given in patent publication US20080045504A1, “Benzonitrile Derivatives to Treat Musculoskeletal Frailty” (PFIZER PRODUCTS INC., priority 2004, published 2008).

Experiments:
[1] = molecular target: T1, recombinant human androgen receptor (hAR) (Homo sapiens, UniProt P10275); test: Human androgen receptor binding analysis (3H-DHT competitive binding)
T1 construct: made in house; host or cells: baculovirus/Sf9 insect cells (crude extract)
T1 sequence (P10275 1-920): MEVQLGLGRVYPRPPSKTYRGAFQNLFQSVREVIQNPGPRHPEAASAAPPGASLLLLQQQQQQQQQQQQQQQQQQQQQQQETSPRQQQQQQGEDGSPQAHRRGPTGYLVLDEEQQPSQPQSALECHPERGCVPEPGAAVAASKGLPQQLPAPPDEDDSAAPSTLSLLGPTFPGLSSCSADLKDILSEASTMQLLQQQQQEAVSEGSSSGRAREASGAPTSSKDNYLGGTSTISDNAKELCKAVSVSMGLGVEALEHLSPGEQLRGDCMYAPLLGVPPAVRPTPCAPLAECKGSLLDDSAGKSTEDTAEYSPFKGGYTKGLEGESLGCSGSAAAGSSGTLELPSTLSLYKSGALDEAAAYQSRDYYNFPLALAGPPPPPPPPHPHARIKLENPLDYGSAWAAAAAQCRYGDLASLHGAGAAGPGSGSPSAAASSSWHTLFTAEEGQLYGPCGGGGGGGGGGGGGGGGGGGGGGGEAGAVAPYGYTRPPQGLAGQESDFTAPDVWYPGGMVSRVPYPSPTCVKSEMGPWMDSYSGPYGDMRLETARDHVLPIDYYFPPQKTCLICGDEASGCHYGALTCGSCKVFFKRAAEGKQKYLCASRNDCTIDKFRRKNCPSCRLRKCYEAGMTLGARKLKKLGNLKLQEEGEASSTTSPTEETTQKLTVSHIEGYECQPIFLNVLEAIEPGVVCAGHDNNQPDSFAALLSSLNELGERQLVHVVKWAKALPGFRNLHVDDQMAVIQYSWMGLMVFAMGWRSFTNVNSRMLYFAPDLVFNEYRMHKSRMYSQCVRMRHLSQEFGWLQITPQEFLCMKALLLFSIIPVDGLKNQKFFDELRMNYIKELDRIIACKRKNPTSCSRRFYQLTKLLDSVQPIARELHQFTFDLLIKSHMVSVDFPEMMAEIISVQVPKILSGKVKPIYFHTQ
Procedure: The following is a brief description of the assay that determines the affinity of a compound for the recombinant human androgen receptor (hAR). Competitive binding analysis is performed on baculovirus/Sf9 generated hAR extracts in the presence or absence of differing concentrations of drug and a fixed concentration of ^3H-dihydrotestosterone (^3H-DHT) as tracer. This binding assay method is a modification of a protocol previously described (Chang, et. al. J. Steroid Biochem. 20(1):11-17 1984). Briefly, progressively decreasing concentrations of compounds are incubated in the presence of hAR extract (Chang et al. P.N.A.S. Vol. 89, pp. 5546-5950, 1992), hydroxylapatite and 1 nM ^3H-DHT for one hour at 4° C. Subsequently, the binding reactions are washed three times to completely remove excess unbound ^3H-DHT. hAR bound ^3H-DHT levels are determined in the presence of compounds (=competitive binding) and compared to levels bound when no competitor is present (=maximum binding). Compound binding affinity to the hAR is expressed as the concentration of compound at which one half of the maximum binding is inhibited (the IC50).

[2] = test system: orchiectomized (ORX) immature male rat; test: Orchiectomized immature rat assay (levator ani and ventral prostate weights); format: in vivo, Sprague Dawley rat; settings: 4 days, TP 10 mg/kg = 100%, ORX control = 0%; for % TP Control LA: levator ani weight; for % TP Control VP: ventral prostate weight
Procedure: All animal studies were performed in accordance with the Guide for Care and Use of Laboratory Animals (National Research Council, 1996). Twenty-one day old male Sprague Dawley rats were acquired from Taconic, Inc, Germantown, N.Y. Rats were housed five per cage at standard vivarium conditions ([…], 12-h light/dark cycle), with normal chow diet and tap water ad libitum. At 25 days of age, the rats underwent bilateral orchiectomy surgery (ORX) after sedation with 3-5% Isoflurane. Following the surgery, the animals were treated immediately by daily subcutaneous (s.c.) injection with vehicle (sesame oil), testosterone propionate (TP, 10 mg/kg) and test compounds. The dosage of test compound administered is in mg/kg. At the end of the 4 days of administrations, the animals were sacrificed in a carbon dioxide chamber, the ventral prostate (VP) and levator ani muscle complex (LA) were removed and weighed. The increase in the weights of VP or LA by TP was expressed as 100%, and the ORX control as baseline, 0%; the response of the test compounds was calculated as the percentage increase compared to TP.

| SMILES | IC50 [1] [nM] | also measured |
| --- | --- | --- |
| CC[C@@H](C)N(C)c1ccc(C#N)c(C(F)(F)F)c1 [Example 7, 4-((R)-sec-Butyl-methyl-amino)-2-trifluoromethyl-benzonitrile] | 1.09 | % TP Control LA ([2]; 3 mg/kg s.c.): 40%; % TP Control LA ([2]; 10 mg/kg s.c.): 65%; % TP Control LA ([2]; 30 mg/kg s.c.): 89%; % TP Control VP ([2]; 3 mg/kg s.c.): 23%; % TP Control VP ([2]; 10 mg/kg s.c.): 24%; % TP Control VP ([2]; 30 mg/kg s.c.): 39% |
| CCN(c1ccc(C#N)c(Cl)c1)C(C)C [Example 48, 2-Chloro-4-(ethyl-isopropyl-amino)-benzonitrile] | 19.7 | – |
| CCCN(CCC)c1ccc(C#N)c(Cl)c1 [Example 49, 2-Chloro-4-(dipropyl-amino)-benzonitrile] | 8.33 | – |
| CC(C)N(C)c1ccc(C#N)c(C#N)c1 [Example 50, 4-(Isopropyl-methyl-amino)-phthalonitrile] | 8.23 | – |
| COC[C@H]1CCCN1c1ccc(C#N)c(C#N)c1 [Example 51, 4-(2-(R)-Methoxymethyl-pyrrolidin-1-yl)-phthalonitrile] | 12.4 | – |
| N#Cc1ccc(N2CCCCCC2)cc1C#N [Example 52, 4-Azepan-1-yl-phthalonitrile] | 5.04 | – |
| CCCN(CCC)c1cc(F)c(C#N)c(F)c1 [Example 53, 2,6-Difluoro-4-(dipropyl-amino)-benzonitrile] | 4.06 | – |
